Among the data in the supplement of paper PMC10307832 are relative viability values, retold here.

One assay relates to HCC-15. Description: relative viability (nuclei count vs DMSO), 5 days (fraction); higher = more cells survive. Particulars: first compound 0.6325 µM. The procedure, abridged:
(§1)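 Lung cancer cell lines in 1536-well plates were dosed by pin tool the day after seeding, either with one drug alone or with a fixed anchor-drug dose plus five library-drug doses (not always all listed) in √10 steps. After 5 days, cells were fixed and their nuclei stained in one step (final 0.05% Triton X-100, 1% formaldehyde, 1 ug/ml Hoechst), then counted on 4× images. Relative viability is the nuclei count in treated wells divided by that in vehicle wells. Values are medians of duplicate plates.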
For `COCC1(CO)C(=O)C2CCN1CC2` (configuration not stated) [PRIMA-1MET] + C[C@@H](Oc1cc(-c2cnn(C3CCNCC3)c2)cnc1N)c1c(Cl)ccc(F)c1Cl [Crizotinib] (partner 1 µM), the relative viability was found to be 0.786.

The same assay, now with this note: first compound 2 µM.
`COCC1(CO)C(=O)C2CCN1CC2` (configuration not stated) [PRIMA-1MET] + O=C(CCCCCCC(=O)Nc1ccccc1)NO [Vorinostat] (partner 1 µM) yielded a relative viability of 0.887.

Compound `COCC1(CO)C(=O)C2CCN1CC2` (configuration not stated) [PRIMA-1MET] + C[C@]1(O)C[C@@H](c2nc(-c3ccc4ccc(-c5ccccc5)nc4c3)c3c(N)nccn32)C1 [Linsitinib] (partner 1 µM) had a relative viability of 0.78.

On to `COCC1(CO)C(=O)C2CCN1CC2` (configuration not stated) [PRIMA-1MET] + Cc1cc(Nc2cc(N3CCN(C)CC3)nc(Sc3ccc(NC(=O)C4CC4)cc3)n2)n[nH]1 [Tozasertib] (partner 0.1 µM), for which the relative viability stood at 0.356.

Turning to `COCC1(CO)C(=O)C2CCN1CC2` (configuration not stated) [PRIMA-1MET] + Cc1nc(NC(=O)N2CCC[C@H]2C(N)=O)sc1-c1ccnc(C(C)(C)C(F)(F)F)c1 [Alpelisib] (partner 2 µM), the relative viability was 0.81.

On to `COCC1(CO)C(=O)C2CCN1CC2` (configuration not stated) [PRIMA-1MET] + C[C@@H](Oc1cc(-c2cnn(C3CCNCC3)c2)cnc1N)c1c(Cl)ccc(F)c1Cl [Crizotinib] (partner 1 µM), for which the relative viability amounted to 0.802.

The same assay, now with this note: first compound 6.325 µM.
`COCC1(CO)C(=O)C2CCN1CC2` (configuration not stated) [PRIMA-1MET] + O=C(CCCCCCC(=O)Nc1ccccc1)NO [Vorinostat] (partner 1 µM): the relative viability came out at 0.871.

The compound `COCC1(CO)C(=O)C2CCN1CC2` (configuration not stated) [PRIMA-1MET] + C[C@]1(O)C[C@@H](c2nc(-c3ccc4ccc(-c5ccccc5)nc4c3)c3c(N)nccn32)C1 [Linsitinib] (partner 1 µM) yielded a relative viability of 0.903.

Compound `COCC1(CO)C(=O)C2CCN1CC2` (configuration not stated) [PRIMA-1MET] + Cc1cc(Nc2cc(N3CCN(C)CC3)nc(Sc3ccc(NC(=O)C4CC4)cc3)n2)n[nH]1 [Tozasertib] (partner 0.1 µM) came in with a relative viability of 0.422.

On to `COCC1(CO)C(=O)C2CCN1CC2` (configuration not stated) [PRIMA-1MET] + Cc1nc(NC(=O)N2CCC[C@H]2C(N)=O)sc1-c1ccnc(C(C)(C)C(F)(F)F)c1 [Alpelisib] (partner 2 µM), for which the relative viability came out at 0.999.

`COCC1(CO)C(=O)C2CCN1CC2` (configuration not stated) [PRIMA-1MET] + C[C@@H](Oc1cc(-c2cnn(C3CCNCC3)c2)cnc1N)c1c(Cl)ccc(F)c1Cl [Crizotinib] (partner 1 µM) displayed a relative viability of 0.807.

Staying with this assay, now noted: first compound 20 µM.
Take `COCC1(CO)C(=O)C2CCN1CC2` (configuration not stated) [PRIMA-1MET] + O=C(CCCCCCC(=O)Nc1ccccc1)NO [Vorinostat] (partner 1 µM): the relative viability stood at 0.758.

Regarding `COCC1(CO)C(=O)C2CCN1CC2` (configuration not stated) [PRIMA-1MET] + C[C@]1(O)C[C@@H](c2nc(-c3ccc4ccc(-c5ccccc5)nc4c3)c3c(N)nccn32)C1 [Linsitinib] (partner 1 µM), the relative viability came to 0.722.

In the case of `COCC1(CO)C(=O)C2CCN1CC2` (configuration not stated) [PRIMA-1MET] + Cc1cc(Nc2cc(N3CCN(C)CC3)nc(Sc3ccc(NC(=O)C4CC4)cc3)n2)n[nH]1 [Tozasertib] (partner 0.1 µM), the relative viability stood at 0.151.

Compound `COCC1(CO)C(=O)C2CCN1CC2` (configuration not stated) [PRIMA-1MET] + Cc1nc(NC(=O)N2CCC[C@H]2C(N)=O)sc1-c1ccnc(C(C)(C)C(F)(F)F)c1 [Alpelisib] (partner 2 µM) displayed a relative viability of 0.643.

`COCC1(CO)C(=O)C2CCN1CC2` (configuration not stated) [PRIMA-1MET] + C[C@@H](Oc1cc(-c2cnn(C3CCNCC3)c2)cnc1N)c1c(Cl)ccc(F)c1Cl [Crizotinib] (partner 1 µM) showed a relative viability of 0.706.

The next assay relates to ABC-1. Described as above. As to conditions: first compound 0.2 µM. The procedure, abridged:
as §1
In the case of `COCC1(CO)C(=O)C2CCN1CC2` (configuration not stated) [PRIMA-1MET] + O=C(CCCCCCC(=O)Nc1ccccc1)NO [Vorinostat] (partner 1 µM), the relative viability was 1.01.

On to `COCC1(CO)C(=O)C2CCN1CC2` (configuration not stated) [PRIMA-1MET] + C[C@]1(O)C[C@@H](c2nc(-c3ccc4ccc(-c5ccccc5)nc4c3)c3c(N)nccn32)C1 [Linsitinib] (partner 1 µM), for which the relative viability worked out at 0.899.

In turn, `COCC1(CO)C(=O)C2CCN1CC2` (configuration not stated) [PRIMA-1MET] + Cc1cc(Nc2cc(N3CCN(C)CC3)nc(Sc3ccc(NC(=O)C4CC4)cc3)n2)n[nH]1 [Tozasertib] (partner 0.1 µM) returned a relative viability of 0.243.

Consider `COCC1(CO)C(=O)C2CCN1CC2` (configuration not stated) [PRIMA-1MET] + Cc1nc(NC(=O)N2CCC[C@H]2C(N)=O)sc1-c1ccnc(C(C)(C)C(F)(F)F)c1 [Alpelisib] (partner 2 µM), for which the relative viability was found to be 1.07.

For the compound `COCC1(CO)C(=O)C2CCN1CC2` (configuration not stated) [PRIMA-1MET] + C[C@@H](Oc1cc(-c2cnn(C3CCNCC3)c2)cnc1N)c1c(Cl)ccc(F)c1Cl [Crizotinib] (partner 1 µM), the relative viability was 1.39.

Still in this assay, the particulars now being: first compound 0.6325 µM.
In turn, `COCC1(CO)C(=O)C2CCN1CC2` (configuration not stated) [PRIMA-1MET] + C[C@]1(O)C[C@@H](c2nc(-c3ccc4ccc(-c5ccccc5)nc4c3)c3c(N)nccn32)C1 [Linsitinib] (partner 1 µM) returned a relative viability of 0.958.

For the compound `COCC1(CO)C(=O)C2CCN1CC2` (configuration not stated) [PRIMA-1MET] + Cc1cc(Nc2cc(N3CCN(C)CC3)nc(Sc3ccc(NC(=O)C4CC4)cc3)n2)n[nH]1 [Tozasertib] (partner 0.1 µM), the relative viability amounted to 0.188.

Compound `COCC1(CO)C(=O)C2CCN1CC2` (configuration not stated) [PRIMA-1MET] + Cc1nc(NC(=O)N2CCC[C@H]2C(N)=O)sc1-c1ccnc(C(C)(C)C(F)(F)F)c1 [Alpelisib] (partner 2 µM) displayed a relative viability of 1.1.

As to `COCC1(CO)C(=O)C2CCN1CC2` (configuration not stated) [PRIMA-1MET] + C[C@@H](Oc1cc(-c2cnn(C3CCNCC3)c2)cnc1N)c1c(Cl)ccc(F)c1Cl [Crizotinib] (partner 1 µM), the relative viability came out at 1.22.

The same assay, now with this note: first compound 2 µM.
Compound `COCC1(CO)C(=O)C2CCN1CC2` (configuration not stated) [PRIMA-1MET] + O=C(CCCCCCC(=O)Nc1ccccc1)NO [Vorinostat] (partner 1 µM) had a relative viability of 1.09.

Regarding `COCC1(CO)C(=O)C2CCN1CC2` (configuration not stated) [PRIMA-1MET] + C[C@]1(O)C[C@@H](c2nc(-c3ccc4ccc(-c5ccccc5)nc4c3)c3c(N)nccn32)C1 [Linsitinib] (partner 1 µM), the relative viability is 0.89.

`COCC1(CO)C(=O)C2CCN1CC2` (configuration not stated) [PRIMA-1MET] + Cc1cc(Nc2cc(N3CCN(C)CC3)nc(Sc3ccc(NC(=O)C4CC4)cc3)n2)n[nH]1 [Tozasertib] (partner 0.1 µM) yielded a relative viability of 0.17.

With `COCC1(CO)C(=O)C2CCN1CC2` (configuration not stated) [PRIMA-1MET] + Cc1nc(NC(=O)N2CCC[C@H]2C(N)=O)sc1-c1ccnc(C(C)(C)C(F)(F)F)c1 [Alpelisib] (partner 2 µM), the relative viability came out at 1.11.

For `COCC1(CO)C(=O)C2CCN1CC2` (configuration not stated) [PRIMA-1MET] + C[C@@H](Oc1cc(-c2cnn(C3CCNCC3)c2)cnc1N)c1c(Cl)ccc(F)c1Cl [Crizotinib] (partner 1 µM), the relative viability came out at 0.945.

Staying with this assay, now noted: first compound 6.325 µM.
On to `COCC1(CO)C(=O)C2CCN1CC2` (configuration not stated) [PRIMA-1MET] + O=C(CCCCCCC(=O)Nc1ccccc1)NO [Vorinostat] (partner 1 µM), for which the relative viability amounted to 1.11.

Turning to `COCC1(CO)C(=O)C2CCN1CC2` (configuration not stated) [PRIMA-1MET] + C[C@]1(O)C[C@@H](c2nc(-c3ccc4ccc(-c5ccccc5)nc4c3)c3c(N)nccn32)C1 [Linsitinib] (partner 1 µM), the relative viability is 0.833.
